Results on 5 compounds are retold here after patent US11820760B2, “Crystalline polymorphs of Bruton's tyrosine kinase inhibitors” (BIOGEN MA INC., priority 2018, dated 2023).

The structures appear in SMILES notation.

Common to all, as to format: physicochemical
A short description of data set [1]: Variable temperature powder X-ray diffraction (VT-PXRD) of crystalline forms. The procedure: Crystallinity of the compound was studied using a XRD-D8 X-ray powder diffractometer using Cu Ka radiation (Bruker, Madison, Wis.). The instrument is equipped with a long fine focus X-ray tube. The tube voltage and amperage were set to 40 kV and 40 mA, respectively. The divergence and scattering slits were set at 1° and the receiving slit was set at 0.15 mm. Diffracted radiation was detected by a Lynxeye detector. A θ-2θ continuous scan at 1.6°/min from 3 to 42° 2θ was used. The sample was prepared for analysis by placing it on a zero background plate. Variable temperature powder X-ray diffraction (VT-PXRD) of Form B was performed by hearing a sample of Form B to 130° C. under N2, following by cooling back down to 30° C. […] (losing all water at this temperature) under N2, indicating Form B is a hygroscopic anhydrate. Variable temperature powder X-ray diffraction (VT-PXRD) of Form C was performed. A sample of Form C was dehydrated by purging the sample under N2 at 30° C. for 20 minutes and then heated to 100° C. under N2 followed by cooling back down to 30° C. and exposed to air for 20 minutes.

Data set [2] can be described thus: PXRD comparison of Form H before and after heating. The note with it: heated to 125° C. As for the experimental part: Crystallinity of the compound was studied using a XRD-D8 X-ray powder diffractometer using Cu Ka radiation (Bruker, Madison, Wis.). The instrument is equipped with a long fine focus X-ray tube. The tube voltage and amperage were set to 40 kV and 40 mA, respectively. The divergence and scattering slits were set at 1° and the receiving slit was set at 0.15 mm. Diffracted radiation was detected by a Lynxeye detector. A θ-2θ continuous scan at 1.6°/min from 3 to 42° 2θ was used. The sample was prepared for analysis by placing it on a zero background plate. A sample of Form H was heated to 125° C. and PXRD pattern was compared with PXRD pattern for the sample before heating.

The nature of data set [3]: PXRD of Form P after grinding in water. The note with it: Form P with 2.9 wt % water ground in water with mortar and pestle to a viscous slurry. As for the experimental part: Crystallinity of the compound was studied using a XRD-D8 X-ray powder diffractometer using Cu Ka radiation (Bruker, Madison, Wis.). The instrument is equipped with a long fine focus X-ray tube. The tube voltage and amperage were set to 40 kV and 40 mA, respectively. The divergence and scattering slits were set at 1° and the receiving slit was set at 0.15 mm. Diffracted radiation was detected by a Lynxeye detector. A θ-2θ continuous scan at 1.6°/min from 3 to 42° 2θ was used. The sample was prepared for analysis by placing it on a zero background plate. Crystalline Form P with 2.9 wt % of water were prepared using similar procedures as described in Method A. Dichloromethane (15V) and n-propyl acetate (35 V) were used as solvents and the DSC/TGA graph is shown in FIG. 25. Crystalline Form P with 2.9 wt % of water was ground in water using a mortar and pestle to produce a viscous slurry. The sample was rapidly prepared, covered with Kapton film and analyzed by PXRD.

Turning to `Cn1cc(Nc2nccc(-c3ccc4c(c3)CN(C3COC3)CC[C@H]4NC(=O)c3cn(C(C)(C)C)nn3)n2)cn1` [Form B, (R)-1-(tert-butyl)-N-(8-(2-((1-methyl-1H-pyrazol-4-yl)amino)pyrimidin-4-yl)-2-(oxetan-3-yl)-2,3,4,5-tetrahydro-1H-benzo[c]azepin-5-yl)-1H-1,2,3-triazole-4-carboxamide], the “form conversion after heating (VT-PXRD)” value in data set [1] (heated to 130° C. under N2, then cooled back to 30° C.) was “No form conversion”.
For the compound `Cn1cc(Nc2nccc(-c3ccc4c(c3)CN(C3COC3)CC[C@H]4NC(=O)c3cn(C(C)(C)C)nn3)n2)cn1` [Form C, (R)-1-(tert-butyl)-N-(8-(2-((1-methyl-1H-pyrazol-4-yl)amino)pyrimidin-4-yl)-2-(oxetan-3-yl)-2,3,4,5-tetrahydro-1H-benzo[c]azepin-5-yl)-1H-1,2,3-triazole-4-carboxamide], in data set [1] (purging with N2 for 20 minutes at 30° C.), the “form conversion after dehydration (VT-PXRD)” value is “converted to Form L”.
Take `Cn1cc(Nc2nccc(-c3ccc4c(c3)CN(C3COC3)CC[C@H]4NC(=O)c3cn(C(C)(C)C)nn3)n2)cn1` [Form H, (R)-1-(tert-butyl)-N-(8-(2-((1-methyl-1H-pyrazol-4-yl)amino)pyrimidin-4-yl)-2-(oxetan-3-yl)-2,3,4,5-tetrahydro-1H-benzo[c]azepin-5-yl)-1H-1,2,3-triazole-4-carboxamide]: in data set [2], the “form conversion after heating (PXRD before/after)” value is recorded as “no form conversion”.
As for `Cn1cc(Nc2nccc(-c3ccc4c(c3)CN(C3COC3)CC[C@H]4NC(=O)c3cn(C(C)(C)C)nn3)n2)cn1` [Form L, (R)-1-(tert-butyl)-N-(8-(2-((1-methyl-1H-pyrazol-4-yl)amino)pyrimidin-4-yl)-2-(oxetan-3-yl)-2,3,4,5-tetrahydro-1H-benzo[c]azepin-5-yl)-1H-1,2,3-triazole-4-carboxamide], the “form conversion after exposure to air (VT-PXRD)” value in data set [1] (exposure to air for about 2.5 hours, re-absorbs water) was “converts back to Form C”.
Consider `Cn1cc(Nc2nccc(-c3ccc4c(c3)CN(C3COC3)CC[C@H]4NC(=O)c3cn(C(C)(C)C)nn3)n2)cn1` [Form P, (R)-1-(tert-butyl)-N-(8-(2-((1-methyl-1H-pyrazol-4-yl)amino)pyrimidin-4-yl)-2-(oxetan-3-yl)-2,3,4,5-tetrahydro-1H-benzo[c]azepin-5-yl)-1H-1,2,3-triazole-4-carboxamide], for which the “PXRD peak shifts after grinding in water” value in data set [3] is recorded as “No peak shifts”.
